Patent publication EP0538297B9, “ANTIVIRAL TETRAHYDROIMIDAZO 1,4]BENZODIAZEPIN-2-(THIO)ONES” (JANSSEN PHARMACEUTICA N.V., priority 1990, dated 1992)
≈ marks a conversion by molar mass, not a printed value.

Assays:
HIV = assay: Inhibition of HIV-induced cytopathic effect in MT-4 cells (MTT); format: cell-based; details: for EC50: Human immunodeficiency virus 1, MT4, dose achieving 50% protection of HIV-infected MT-4 cells, MTT, 540 nm, read-out: ED50 (50% effective dose); for SI (selectivity index): ratio of CD50 to ED50
Description: (§1) A rapid, sensitive and automated assay procedure was used for the in-vitro evaluation of anti-HIV agents. An […] T4-cell line, MT-4, which was previously shown (Koyanagi et al., Int. J. Cancer, 36, 445-451, 1985) to be highly susceptible to and permissive for HIV infection, served as the target cell line. Inhibition of the HIV-induced cytopathic effect was used as the end point. The viability of both HIV- and mock-infected cells was assessed spectrophotometrically via the in-situ reduction of 3-(4,5-dimethylthiazol-2-yl)-2,5-diphenyltetrazolium bromide (MTT). The 50% cytotoxic dose (CD50 in µg/ml) was defined as the concentration of compound that reduced the absorbance of the mock-infected control sample by 50%. The percent protection achieved by the compound in HIV-infected cells was calculated by the following formula: ((ODT )HIV - (ODC )HIV)/((ODC )MOCK - (ODC )HIV) [formula] expressed in %, whereby (ODT)HIV is the optical density measured with a given concentration of the test compound in HIV-infected cells; (ODC)HIV is the optical density measured for the control untreated HIV-infected cells; (ODC)MOCK is the optical density measured for the control untreated mock-infected cells; all optical density values were determined at 540 nm. The dose achieving 50% protection according to the above formula was defined as the 50% effective dose (ED50 in µg/ml). The ratio of CD50 to ED50 was defined as the selectivity index (SI).

in vitro = format: cell-based; details: human, mt-4 cells
Description: as §1

| EC50 (HIV) [µg/mL] | SMILES | SI (selectivity index) (HIV) | CC50 (in vitro) [µg/mL] |
| --- | --- | --- | --- |
| 0.038 (≈ 0.121 µM) | CCC(=CCN1Cc2c(C)ccc3[nH]c(=O)n(c23)C[C@@H]1C)CC [compound 5, (+)-(S)-6-(3-ethyl-2-pentenyl)-4,5,6,7-tetrahydro-5,8-dimethylimidazo-[4,5,1-jk][1,4]benzodiazepin-2(1H)-one] | 370 | 14.3 (≈ 45.6 µM) |
| 0.032 (≈ 0.0958 µM) | CCC(=CCN1Cc2cc(Cl)cc3[nH]c(=O)n(c23)C[C@@H]1C)CC [compound 2] | >312 | > 10 |
| 0.006 | CCC(=CCN1Cc2cc(Cl)cc3[nH]c(=S)n(c23)C[C@@H]1C)CC.Cl [compound 7, (-)-(S)-9-chloro-6-(3-ethyl-2-pentenyl)-4,5,6,7-tetrahydro-5-methylimidazo[4,5,1-jk][1,4]benzodiazepine-2(1H)-thione monohydrochloride] | 850 | 5.2 |
